Measurements: the SangsterLogP compilation

Structure (SMILES) | logP
O=C(CBr)c1ccccc1 | 2.19
Oc1ccc2c(c1)CCCC2 | 2.9
O=[N+]([O-])c1cccc(F)c1 | 2.02
O=Cc1ccccc1Cl | 2.28
CCCc1ccccc1O | 2.93
OCc1cccc2ccccc12 | 2.37
CC(O)c1ccc2ccccc2c1 (configuration not stated) | 2.68
Oc1ccc2cc(O)ccc2c1 | 1.9
O=[N+]([O-])c1cc(F)cc(F)c1 | 2.03
CC(=O)c1ccccc1Br | 2.28
Oc1cccc2c(O)cccc12 | 2.19
O=[N+]([O-])c1cc(F)ccc1F | 1.86
Cc1cc2ccccc2o1 | 3.22
O=Cc1cccc(Cl)c1 | 2.26
O=[N+]([O-])c1ccc(F)cc1 | 1.89
Oc1cc2ccccc2cc1O | 2.24
OC1CCCc2ccccc21 (configuration not stated) | 1.98
O=[N+]([O-])c1ccccc1F | 1.84
CC(=O)c1ccc(Br)cc1 | 2.57
OCC1c2ccccc2-c2ccccc21 | 2.89
CC(=O)c1cccc(Br)c1 | 2.58
CC(=O)c1cccc(Cl)c1 | 2.43
